Test results from patent US20250099490A1, “25-HYDROXYVITAMIN D AS A FEED ADDITIVE FOR AQUATIC ANIMALS” (DSM IP Assets B.V., priority 2022, published 2025).
“Also recorded” adds a separate entry of the source.

Assays:
Type in all cases: in vivo
[1] = Study 1: rainbow trout 91-day feeding trial, growth performance (SGR) and feed conversion (FCR); settings: rainbow trout, 80, 800 or 8000 μg/kg 25-OH-D3 in feed, 91 days
Experimental: (§1) The first study evaluated dietary 25-hydroxyvitamin D3 (25-OH D3) compared to control basal diet fed fish. Fish with a mean starting weight of 58 g were fed diets based on the same standard composition representative of typical commercial salmonid feeds.
(§2) Test diets contained no supplemented 25-OH-D3 or either 80, 800 or 8000 μg/kg supplemented 25-OH-D3 (as fed basis). Hy·D (25-OH-D3) was supplemented on top of diets already containing cholecalciferol (D3) from both endogenous and supplemented sources. The measured levels of D3 in all experimental diets were in excess of established minimum dietary requirements for D3, (National Research Council (NRC), Nutrient Requirements of Fish and Shrimp. 2011, Washington, DC: The National Academies Press. 392.). In addition, the dietary level of D3 in all experimental diets met recommendations for optimal vitamin D3 in salmonid diets (Fish Nutrition. Fourth Edition 2021. Edited by Ronald W. Hardy and Sadasivam J. Kaushik. Academic Press, UK. 905 pp.), which stipulates a vitamin D3 supplementation of 2500-3500 international units (IU)/62.5-87.5 μg/kg). Diets were fed for 91 days following which, test fish reached a mean final weight of 332 g. Forty fish were housed in each tank and each treatment consisted of four replicate tanks.

[2] = Study 1: rainbow trout 91-day feeding trial, vitamin D3 metabolites in plasma and muscle
Experimental: as §1, §2

[3] = Study 2: Atlantic salmon 90-day feeding trial, final body weight, FCR and PER; settings: Atlantic salmon, 100, 200 or 400 μg/kg 25-OH-D3 in feed, 90 days, relative to control
Experimental: (§3) The second study evaluated dietary 25-hydroxyvitamin D3 (25-OH D3) compared to control basal diet fed fish.
(§4) Fish with a mean starting weight of 23.4 g were fed diets based on the same standard composition representative of typical commercial salmonid feeds. Test diets contained no supplemented 25-OH-D3 or either 100, 200 or 400 μg/kg supplemented 25-OH-D3 (as fed basis). Hy·D (25-OH-D3) was supplemented on top of diets already containing cholecalciferol (D3) from both endogenous and supplemented sources. The measured levels of D3 in all experimental diets were in excess of established minimum dietary requirements for D3, (National Research Council (NRC), Nutrient Requirements of Fish and Shrimp. 2011, Washington, DC: The National Academies Press. 392.). In addition, the dietary level of D3 in all experimental diets met recommendations for optimal vitamin D3 in salmonid diets (Fish Nutrition. Fourth Edition 2021. Edited by Ronald W. Hardy and Sadasivam J. Kaushik. Academic Press, UK. 905 pp.), which stipulates a vitamin D3 supplementation of 2500-3500 international units (IU)/62.5-87.5 μg/kg). Diets were fed for 90 days with test fish reaching a mean final weight of 73.0 g. Twenty fish were housed in each tank and each treatment consisted of five replicate tanks.

[4] = Study 2: Atlantic salmon 90-day feeding trial, viscerosomatic index, carcass yield and visceral fat; settings: Atlantic salmon, 100, 200 or 400 μg/kg 25-OH-D3 in feed, 90 days, relative to control
Experimental: as §3, §4

[5] = Rainbow trout 20-week feeding from first-feeding, feed efficiency and whole body composition; settings: 80 μg/Kg 25-OH-D3 plus D3, 20 weeks
Experimental: The first study evaluated standard dietary levels of supplemented vitamin D3 alone or in combination with 80 μg/Kg 25-hydroxy vitamin D3dietary 25-hydroxyvitamin D3 (25-OH D3) in rainbow trout fed for 20 weeks from first-feeding.
Two commercial-like experimental diets were formulated by DSM Nutritional Products France and produced by SPAROS (Portugal). The basal diet was supplemented with either vitamin D3 only (VitD3 diet) or D3 in combination with 80 μg/Kg 25-hydroxy vitamin D3 (25-OH-D3 diet) (Table 1).
The parameters for growth performance, including feed efficiency (FE), were measured every 3 weeks and calculated as follow: Feed efficiency (FE)=(the mass for dead fish+final wet body mass-initial wet body mass)/dry feed intake. […].
Data are presented as means±standard deviation (SD). For growth parameters, the plasma and the qPCR results, data were analyzed by t-Student comparison of two means. Normality was assessed using the Shaprio-Wilk test, while homoscedasticity was determined using Levene's test. Data was analysed using the statistical R software/R Commander package. For all statistical analyses, the level of significance was set at P<0.05. […] Differentially expressed genes (DEG) are determined and hierarchical clustering is illustrated by a heatmap. […]

[6] = rainbow trout, 80, 800 or 8000 μg/kg in standard trout feed

plasma levels of 1,25-OH-D3 (active D3 metabolite) ([2]; rainbow trout, 80, 800 or 8000 μg/kg dietary 25-OH-D3 from Hy·D, D3-replete diets): increased plasma levels
blood plasma 25-OH-D3 in response to increasing dietary 25-OH-D3 [2, 6]: increase in a linear relationship
muscle 25-OH-D3 in response to increasing dietary 25-OH-D3 [2, 6]: increase in a linear relationship
bioavailability to fish ([2]; rainbow trout, from changes in plasma and muscle vitamin D3 metabolites): highly bioavailable
Compound: C=C1CC[C@H](O)C/C1=C/C=C1\CCC[C@]2(C)[C@@H]([C@H](C)CCCC(C)(C)O)CC[C@@H]12 [25-OH-D3, 25-hydroxyvitamin D3]
specific growth rate (SGR) relative to the control ([1]; apparent from 31 days onwards): rapidly improved; also recorded: increased growth rate relative to the control
feed conversion ratio (FCR) relative to the control ([1]; from 15 days onwards): rapidly improved
feed conversion (FCR) [3]: improved
final body weight [3]: improved; also recorded: increased growth
protein efficiency ratio (PER) [3]: improved
carcass yield (percentage carcass) [4]: improved carcass yields; also recorded: increased
percentage fat in the viscera [4]: reduced percentage fat being deposited in the viscera
viscerosomatic index (VSI) [4]: reduced VSI; also recorded: decreased VSI
feed efficiency (FE) ([5]; rainbow trout fry, vs 1.19 for comparison diet, p=0.0002): 1.29
whole body protein ([5]; rainbow trout, 47.38 vs. 51.15, p=0.006): 51.15
